Results published in patent US9738634B2, “Heterocyclic amide compound and herbicide” (SYNGENTA PARTICIPATIONS AG, priority 2013, dated 2017).

What was measured:
Format in all cases: in vivo
[1] = system: Indian mallow; test: Test Example 3: weedkilling efficacy through soil treatment; K: Indian mallow; details: treatment dosage 315 g/ha
In short: (§1)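 Crop and weed responses were judged three weeks after a uniform surface spray of the water-diluted emulsion at the given g/ha rate. Seeds sat beneath about 1.5 cm of sterilized diluvial soil, and boxes stood in a greenhouse at 25 to 30° C.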

[2] = system: transplanted rice; test: Test Example 1: preemergent weed treatment in the submerged state, effect on crop; a: transplanted rice; details: treatment dosage 252 g/ha
In short: (§2)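 Alluvial soil in Wagner pots flooded to 4 cm; barnyard grass, bulrush and oval-leafed pondweed seeds sown, then 2.5-leaf rice seedlings transplanted. Same day, emulsified compound diluted in water to set g/ha dosages and applied to water surface; greenhouse 25–30 °C, effect scored by criteria after 3 weeks.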

[3] = system: black-grass; test: Test Example 3: weedkilling efficacy through soil treatment; H: black-grass; details: treatment dosage 315 g/ha
In short: as §1

[4] = system: directly sown rice; test: Test Example 3: soil treatment, effect on crop; b: directly sown rice; details: treatment dosage 315 g/ha
In short: as §1

[5] = system: beet; test: Test Example 4: foliar treatment, effect on crop; f: beet; details: treatment dosage 315 g/ha
In short: (§3)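 Seeds are spot-sown into sterilized diluvial soil and covered with about 1.5 cm of soil. After 14 days' greenhouse growth at 25 to 30° C, plants are sprayed on stems and leaves with diluted emulsion at the stated g/ha rate, then scored at 3 weeks.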

[6] = system: birds-eye speedwell; test: Test Example 4: weedkilling efficacy by foliar treatment; p: birds-eye speedwell; details: treatment dosage 315 g/ha
In short: as §3

[7] = system: chickweed; test: Test Example 3: weedkilling efficacy through soil treatment; N: chickweed; details: treatment dosage 315 g/ha
In short: as §1

[8] = system: crabgrass; test: Test Example 4: weedkilling efficacy by foliar treatment; D: crabgrass; details: treatment dosage 315 g/ha
In short: as §3

[9] = system: barnyard grass; test: Test Example 1: weedkilling efficacy, preemergent weed treatment in the submerged state; A: barnyard grass; details: treatment dosage 252 g/ha
In short: as §2

[10] = system: soybean; test: Test Example 4: foliar treatment, effect on crop; d: soybean; details: treatment dosage 315 g/ha
In short: as §3

[11] = system: bulrush; test: Test Example 1: weedkilling efficacy, preemergent weed treatment in the submerged state; B: bulrush; details: treatment dosage 252 g/ha
In short: as §2

[12] = system: corn; test: Test Example 4: foliar treatment, effect on crop; c: corn; details: treatment dosage 315 g/ha
In short: as §3

[13] = system: fig-leafed goosefoot; test: Test Example 3: weedkilling efficacy through soil treatment; M: fig-leafed goosefoot; details: treatment dosage 315 g/ha
In short: as §1

[14] = system: beet; test: Test Example 3: soil treatment, effect on crop; f: beet; details: treatment dosage 315 g/ha
In short: as §1

[15] = system: soybean; test: Test Example 3: soil treatment, effect on crop; d: soybean; details: treatment dosage 315 g/ha
In short: as §1

[16] = system: directly sown rice; test: Test Example 4: foliar treatment, effect on crop; b: directly sown rice; details: treatment dosage 315 g/ha
In short: as §3

[17] = system: bulrush; test: Test Example 2: weedkilling efficacy, growth period weed treatment in the submerged state; B: bulrush; details: treatment dosage 252 g/ha
In short: (§4)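 First, alluvial soil in pots is flooded to 4 cm and mixed seed is sown. Next, plants grow in a greenhouse at 25 to 30° C until the 1-2 leaf stage. Then diluted emulsion is applied onto the water surface at the given g/ha rate, and injury is assessed after 3 weeks.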

[18] = system: oval-leafed pondweed; test: Test Example 1: weedkilling efficacy, preemergent weed treatment in the submerged state; C: oval-leafed pondweed; details: treatment dosage 252 g/ha
In short: as §2

[19] = system: crabgrass; test: Test Example 3: weedkilling efficacy through soil treatment; D: crabgrass; details: treatment dosage 315 g/ha
In short: as §1

[20] = system: green foxtail; test: Test Example 4: weedkilling efficacy by foliar treatment; E: green foxtail; details: treatment dosage 315 g/ha
In short: as §3

[21] = system: black-grass; test: Test Example 4: weedkilling efficacy by foliar treatment; H: black-grass; details: treatment dosage 315 g/ha
In short: as §3

[22] = system: chickweed; test: Test Example 4: weedkilling efficacy by foliar treatment; N: chickweed; details: treatment dosage 315 g/ha
In short: as §3

[23] = system: wheat; test: Test Example 4: foliar treatment, effect on crop; e: wheat; details: treatment dosage 315 g/ha
In short: as §3

[24] = system: barnyard grass; test: Test Example 2: weedkilling efficacy, growth period weed treatment in the submerged state; A: barnyard grass; details: treatment dosage 252 g/ha
In short: as §4

[25] = system: green foxtail; test: Test Example 3: weedkilling efficacy through soil treatment; E: green foxtail; details: treatment dosage 315 g/ha
In short: as §1

[26] = system: redroot pigweed; test: Test Example 3: weedkilling efficacy through soil treatment; L: redroot pigweed; details: treatment dosage 315 g/ha
In short: as §1

[27] = system: Indian mallow; test: Test Example 4: weedkilling efficacy by foliar treatment; K: Indian mallow; details: treatment dosage 315 g/ha
In short: as §3

[28] = system: oval-leafed pondweed; test: Test Example 2: weedkilling efficacy, growth period weed treatment in the submerged state; C: oval-leafed pondweed; details: treatment dosage 252 g/ha
In short: as §4

[29] = system: corn; test: Test Example 3: soil treatment, effect on crop; c: corn; details: treatment dosage 315 g/ha
In short: as §1

[30] = system: wheat; test: Test Example 3: soil treatment, effect on crop; e: wheat; details: treatment dosage 315 g/ha
In short: as §1

[31] = system: fig-leafed goosefoot; test: Test Example 4: weedkilling efficacy by foliar treatment; M: fig-leafed goosefoot; details: treatment dosage 315 g/ha
In short: as §3

[32] = system: redroot pigweed; test: Test Example 4: weedkilling efficacy by foliar treatment; L: redroot pigweed; details: treatment dosage 315 g/ha
In short: as §3

[33] = system: catchweed; test: Test Example 4: weedkilling efficacy by foliar treatment; O: catchweed; details: treatment dosage 315 g/ha
In short: as §3

[34] = system: Italian ryegrass; test: Test Example 3: weedkilling efficacy through soil treatment; I: Italian ryegrass; details: treatment dosage 315 g/ha
In short: as §1

[35] = system: Italian ryegrass; test: Test Example 4: weedkilling efficacy by foliar treatment; I: Italian ryegrass; details: treatment dosage 315 g/ha
In short: as §3

[36] = system: birds-eye speedwell; test: Test Example 3: weedkilling efficacy through soil treatment; p: birds-eye speedwell; details: treatment dosage 315 g/ha
In short: as §1

For `CC1=C(c2cccnc2F)C(=O)N(C(C)(C)C(=O)Nc2cccc(Cl)n2)CO1` [B-2-08], the “K (Indian mallow) weedkilling efficacy grade” value [1] was 4 (weed kill ratio 70% or more, less than 90%), the “a (transplanted rice) effect on crop grade” value [2] was 0 (weed kill ratio 5% or less (practically no effect)) and the “H (black-grass) weedkilling efficacy grade” value [3] was 5 (weed kill ratio 90% or more, (practically complete withering)). For the same molecule, the “b (directly sown rice) effect on crop grade” value (shortened to “b (directly sown rice) effect”) [4] was 5 (weed kill ratio 90% or more, (practically complete withering)), the “f (beet) effect on crop grade” value [5] was 5 (weed kill ratio 90% or more, (practically complete withering)) and the “P (birds-eye speedwell) weedkilling efficacy grade” value [6] was 4 (weed kill ratio 70% or more, less than 90%). The “N (chickweed) weedkilling efficacy grade” value [7] was 3 (weed kill ratio 40% or more, less than 70%), the “D (crabgrass) weedkilling efficacy grade” value [8] was 5 (weed kill ratio 90% or more, (practically complete withering)) and the “A (barnyard grass) weedkilling efficacy grade” value [9] was 5 (weed kill ratio 90% or more, (practically complete withering)). The “d (soybean) effect on crop grade” value [10] was 4 (weed kill ratio 70% or more, less than 90%), the “B (bulrush) weedkilling efficacy grade” value [11] was 5 (weed kill ratio 90% or more, (practically complete withering)) and the “c (corn) effect on crop grade” value [12] was 0 (weed kill ratio 5% or less (practically no effect)). The “M (fig-leafed goosefoot) weedkilling efficacy grade” value [13] was 4 (weed kill ratio 70% or more, less than 90%), the “f (beet) effect on crop grade” value [14] was 1 (weed kill ratio 5% or more, less than 20%) and the “d (soybean) effect on crop grade” value [15] was 0 (weed kill ratio 5% or less (practically no effect)). The “b (directly sown rice) effect” value [16] was 4 (weed kill ratio 70% or more, less than 90%), the “B (bulrush) weedkilling efficacy grade” value [17] was 5 (weed kill ratio 90% or more, (practically complete withering)) and the “C (oval-leafed pondweed) weedkilling efficacy grade” value [18] was 5 (weed kill ratio 90% or more, (practically complete withering)). For the same molecule, the “D (crabgrass) weedkilling efficacy grade” value [19] was 5 (weed kill ratio 90% or more, (practically complete withering)), the “E (green foxtail) weedkilling efficacy grade” value [20] was 5 (weed kill ratio 90% or more, (practically complete withering)) and the “H (black-grass) weedkilling efficacy grade” value [21] was 5 (weed kill ratio 90% or more, (practically complete withering)). The “N (chickweed) weedkilling efficacy grade” value [22] was 4 (weed kill ratio 70% or more, less than 90%), the “e (wheat) effect on crop grade” value [23] was 2 (weed kill ratio 20% or more, less than 40%) and the “A (barnyard grass) weedkilling efficacy grade” value [24] was 5 (weed kill ratio 90% or more, (practically complete withering)). The “E (green foxtail) weedkilling efficacy grade” value [25] was 5 (weed kill ratio 90% or more, (practically complete withering)), the “L (redroot pigweed) weedkilling efficacy grade” value [26] was 4 (weed kill ratio 70% or more, less than 90%) and the “K (Indian mallow) weedkilling efficacy grade” value [27] was 4 (weed kill ratio 70% or more, less than 90%). For the same molecule, the “C (oval-leafed pondweed) weedkilling efficacy grade” value [28] was 5 (weed kill ratio 90% or more, (practically complete withering)), the “c (corn) effect on crop grade” value [29] was 0 (weed kill ratio 5% or less (practically no effect)) and the “e (wheat) effect on crop grade” value [30] was 3 (weed kill ratio 40% or more, less than 70%). For the same molecule, the “M (fig-leafed goosefoot) weedkilling efficacy grade” value [31] was 4 (weed kill ratio 70% or more, less than 90%), the “L (redroot pigweed) weedkilling efficacy grade” value [32] was 4 (weed kill ratio 70% or more, less than 90%) and the “O (catchweed) weedkilling efficacy grade” value [33] was 3 (weed kill ratio 40% or more, less than 70%). The “I (Italian ryegrass) weedkilling efficacy grade” value [34] was 5 (weed kill ratio 90% or more, (practically complete withering)), the “I (Italian ryegrass) weedkilling efficacy grade” value [35] was 5 (weed kill ratio 90% or more, (practically complete withering)) and the “P (birds-eye speedwell) weedkilling efficacy grade” value [36] was 4 (weed kill ratio 70% or more, less than 90%).
`CC1=C(c2ccsc2)C(=O)N(C(C)(C)C(=O)Nc2cccc(Cl)n2)CO1` [B-2-05] was tested, and the “K (Indian mallow) weedkilling efficacy grade” value [1] was 1 (weed kill ratio 5% or more, less than 20%), the “a (transplanted rice) effect on crop grade” value [2] was 0 (weed kill ratio 5% or less (practically no effect)) and the “H (black-grass) weedkilling efficacy grade” value [3] was 5 (weed kill ratio 90% or more, (practically complete withering)). For the same molecule, the “b (directly sown rice) effect” value [4] was 3 (weed kill ratio 40% or more, less than 70%), the “f (beet) effect on crop grade” value [5] was 4 (weed kill ratio 70% or more, less than 90%) and the “P (birds-eye speedwell) weedkilling efficacy grade” value [6] was 5 (weed kill ratio 90% or more, (practically complete withering)). The “N (chickweed) weedkilling efficacy grade” value [7] was 5 (weed kill ratio 90% or more, (practically complete withering)), the “D (crabgrass) weedkilling efficacy grade” value [8] was 5 (weed kill ratio 90% or more, (practically complete withering)) and the “A (barnyard grass) weedkilling efficacy grade” value [9] was 5 (weed kill ratio 90% or more, (practically complete withering)). The “d (soybean) effect on crop grade” value [10] was 3 (weed kill ratio 40% or more, less than 70%), the “B (bulrush) weedkilling efficacy grade” value [11] was 5 (weed kill ratio 90% or more, (practically complete withering)) and the “c (corn) effect on crop grade” value [12] was 4 (weed kill ratio 70% or more, less than 90%). The “M (fig-leafed goosefoot) weedkilling efficacy grade” value [13] was 5 (weed kill ratio 90% or more, (practically complete withering)), the “f (beet) effect on crop grade” value [14] was 5 (weed kill ratio 90% or more, (practically complete withering)) and the “d (soybean) effect on crop grade” value [15] was 0 (weed kill ratio 5% or less (practically no effect)). The “b (directly sown rice) effect” value [16] was 4 (weed kill ratio 70% or more, less than 90%), the “B (bulrush) weedkilling efficacy grade” value [17] was 5 (weed kill ratio 90% or more, (practically complete withering)) and the “C (oval-leafed pondweed) weedkilling efficacy grade” value [18] was 5 (weed kill ratio 90% or more, (practically complete withering)). The “D (crabgrass) weedkilling efficacy grade” value [19] was 5 (weed kill ratio 90% or more, (practically complete withering)), the “E (green foxtail) weedkilling efficacy grade” value [20] was 5 (weed kill ratio 90% or more, (practically complete withering)) and the “H (black-grass) weedkilling efficacy grade” value [21] was 5 (weed kill ratio 90% or more, (practically complete withering)). For the same molecule, the “N (chickweed) weedkilling efficacy grade” value [22] was 4 (weed kill ratio 70% or more, less than 90%), the “e (wheat) effect on crop grade” value [23] was 3 (weed kill ratio 40% or more, less than 70%) and the “A (barnyard grass) weedkilling efficacy grade” value [24] was 5 (weed kill ratio 90% or more, (practically complete withering)). For the same molecule, the “E (green foxtail) weedkilling efficacy grade” value [25] was 5 (weed kill ratio 90% or more, (practically complete withering)), the “L (redroot pigweed) weedkilling efficacy grade” value [26] was 4 (weed kill ratio 70% or more, less than 90%) and the “K (Indian mallow) weedkilling efficacy grade” value [27] was 3 (weed kill ratio 40% or more, less than 70%). For the same molecule, the “C (oval-leafed pondweed) weedkilling efficacy grade” value [28] was 5 (weed kill ratio 90% or more, (practically complete withering)), the “c (corn) effect on crop grade” value [29] was 0 (weed kill ratio 5% or less (practically no effect)) and the “e (wheat) effect on crop grade” value [30] was 0 (weed kill ratio 5% or less (practically no effect)). The “M (fig-leafed goosefoot) weedkilling efficacy grade” value [31] was 4 (weed kill ratio 70% or more, less than 90%), the “L (redroot pigweed) weedkilling efficacy grade” value [32] was 3 (weed kill ratio 40% or more, less than 70%) and the “O (catchweed) weedkilling efficacy grade” value [33] was 4 (weed kill ratio 70% or more, less than 90%). For the same molecule, the “I (Italian ryegrass) weedkilling efficacy grade” value [34] was 5 (weed kill ratio 90% or more, (practically complete withering)), the “I (Italian ryegrass) weedkilling efficacy grade” value [35] was 5 (weed kill ratio 90% or more, (practically complete withering)) and the “P (birds-eye speedwell) weedkilling efficacy grade” value [36] was 5 (weed kill ratio 90% or more, (practically complete withering)).
